Laboratory results published in patent US10442807B2, “Aryl substituted bicyclic compounds as herbicides” (FMC Corporation, priority 2015, dated 2019).

Legend:
Format in all cases: in vivo
[1] = tested on: barnyardgrass (Echinochloa crus-galli); assay: Test A preemergence, directed soil spray, visual injury rating; conditions: approx. 10 d, 0 = no effect, 100 = complete control
Method in brief: (§1)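 Seeds sown in loam/sand soil got a directed soil spray before emergence, or plants at one- to two-leaf stage (2-10 cm) were sprayed postemergence; chemical in non-phytotoxic solvent with surfactant. Greenhouse approx. 10 d, then visual injury vs untreated controls on 0 (no effect) to 100 (complete control) scale.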

[2] = tested on: foxtail, giant (giant foxtail, Setaria faberii); assay: as above; conditions: approx. 10 d, 0 = no effect, 100 = complete control
Method in brief: as §1

[3] = tested on: kochia (Kochia scoparia); assay: as above; conditions: approx. 10 d, 0 = no effect, 100 = complete control
Method in brief: as §1

[4] = tested on: pigweed (Amaranthus retroflexus); assay: as above; conditions: approx. 10 d, 0 = no effect, 100 = complete control
Method in brief: as §1

[5] = tested on: ragweed (common ragweed, Ambrosia elation); assay: as above; conditions: approx. 10 d, 0 = no effect, 100 = complete control
Method in brief: as §1

[6] = tested on: ryegrass, Italian (Italian ryegrass, Lolium multiflorum); assay: as above; conditions: approx. 10 d, 0 = no effect, 100 = complete control
Method in brief: as §1

[7] = tested on: barnyardgrass (Echinochloa crus-galli); assay: Test A postemergence application, visual injury rating; conditions: approx. 10 d, 0 = no effect, 100 = complete control
Method in brief: as §1

[8] = tested on: blackgrass (Alopecurus myosuroides); assay: as above; conditions: approx. 10 d, 0 = no effect, 100 = complete control
Method in brief: as §1

[9] = tested on: corn (Zea mays); assay: as above; conditions: approx. 10 d, 0 = no effect, 100 = complete control
Method in brief: as §1

[10] = tested on: foxtail, giant (giant foxtail, Setaria faberii); assay: as above; conditions: approx. 10 d, 0 = no effect, 100 = complete control
Method in brief: as §1

[11] = tested on: galium (catchweed bedstraw, Galium aparine); assay: as above; conditions: approx. 10 d, 0 = no effect, 100 = complete control
Method in brief: as §1

[12] = tested on: kochia (Kochia scoparia); assay: as above; conditions: approx. 10 d, 0 = no effect, 100 = complete control
Method in brief: as §1

[13] = tested on: pigweed (Amaranthus retroflexus); assay: as above; conditions: approx. 10 d, 0 = no effect, 100 = complete control
Method in brief: as §1

[14] = tested on: ragweed (common ragweed, Ambrosia elation); assay: as above; conditions: approx. 10 d, 0 = no effect, 100 = complete control
Method in brief: as §1

[15] = tested on: ryegrass, Italian (Italian ryegrass, Lolium multiflorum); assay: as above; conditions: approx. 10 d, 0 = no effect, 100 = complete control
Method in brief: as §1

[16] = tested on: wheat (Triticum aestivum); assay: as above; conditions: approx. 10 d, 0 = no effect, 100 = complete control
Method in brief: as §1

[17] = tested on: barnyardgrass (Echinochloa crus-galli); assay: Test B flooded paddy test, visual plant response rating; conditions: 250 g ai/ha; applied to paddy water at 2-leaf stage; rated after 13 to 15 days; scale 0 to 100, 0 is no effect, 100 is complete control
Method in brief: (§2)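 Water stood 3 cm above the soil when compounds were applied into it, and it was kept there for the whole test. After 13 to 15 days in the greenhouse, plants were compared with controls and rated visually from 0 (no effect) to 100 (complete control).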

[18] = tested on: ducksalad (Heteranthera limosa); assay: as above; conditions: 250 g ai/ha; applied to paddy water at 2-leaf stage; rated after 13 to 15 days; scale 0 to 100, 0 is no effect, 100 is complete control
Method in brief: as §2

[19] = tested on: rice (Oryza sativa); assay: as above; conditions: 250 g ai/ha; applied to paddy water at 2-leaf stage; rated after 13 to 15 days; scale 0 to 100, 0 is no effect, 100 is complete control
Method in brief: as §2

[20] = tested on: sedge, umbrella (small-flower umbrella sedge, Cyperus difformis); assay: as above; conditions: 250 g ai/ha; applied to paddy water at 2-leaf stage; rated after 13 to 15 days; scale 0 to 100, 0 is no effect, 100 is complete control
Method in brief: as §2

| SMILES | Barnyardgrass plant response rating (0 to 100 scale) ([1]; 125 g ai/ha) | Barnyardgrass plant response rating (0 to 100 scale) ([1]; 500 g ai/ha) | Foxtail, Giant plant response rating (0 to 100 scale) ([2]; 125 g ai/ha) | Foxtail, Giant plant response rating (0 to 100 scale) ([2]; 500 g ai/ha) | Kochia plant response rating (0 to 100 scale) ([3]; 125 g ai/ha) | Kochia plant response rating (0 to 100 scale) ([3]; 500 g ai/ha) | Pigweed plant response rating (0 to 100 scale) ([4]; 125 g ai/ha) | Pigweed plant response rating (0 to 100 scale) ([4]; 500 g ai/ha) | Ragweed plant response rating (0 to 100 scale) ([5]; 125 g ai/ha) | Ragweed plant response rating (0 to 100 scale) ([5]; 500 g ai/ha) | Ryegrass, Italian plant response rating (0 to 100 scale) ([6]; 125 g ai/ha) | Ryegrass, Italian plant response rating (0 to 100 scale) ([6]; 500 g ai/ha) | Barnyardgrass plant response rating (0 to 100 scale) ([7]; 125 g ai/ha) | Barnyardgrass plant response rating (0 to 100 scale) ([7]; 500 g ai/ha) | Blackgrass plant response rating (0 to 100 scale) ([8]; 125 g ai/ha) | Blackgrass plant response rating (0 to 100 scale) ([8]; 500 g ai/ha) | Corn plant response rating (0 to 100 scale) ([9]; 125 g ai/ha) | Corn plant response rating (0 to 100 scale) ([9]; 500 g ai/ha) | Foxtail, Giant plant response rating (0 to 100 scale) ([10]; 125 g ai/ha) | Foxtail, Giant plant response rating (0 to 100 scale) ([10]; 500 g ai/ha) | other results |
| --- | --- | --- | --- | --- | --- | --- | --- | --- | --- | --- | --- | --- | --- | --- | --- | --- | --- | --- | --- | --- | --- |
| CCc1ccc(C2Cn3cnnc3C2C(=O)Nc2cccc(F)c2C)cc1 (stereo not drawn) [Compound 28] | 60 | 90 | 70 | 90 | 60 | 60 | 0 | 0 | 0 | 30 | 0 | 30 | 50 | 80 | 20 | 40 | 0 | 0 | 40 | 60 | Galium plant response rating (0 to 100 scale) ([11]; 125 g ai/ha): 20; Galium plant response rating (0 to 100 scale) ([11]; 500 g ai/ha): 30; Kochia plant response rating (0 to 100 scale) ([12]; 125 g ai/ha): 20; Kochia plant response rating (0 to 100 scale) ([12]; 500 g ai/ha): 50; Pigweed plant response rating (0 to 100 scale) ([13]; 125 g ai/ha): 0; Pigweed plant response rating (0 to 100 scale) ([13]; 500 g ai/ha): 0; Ragweed plant response rating (0 to 100 scale) ([14]; 125 g ai/ha): 0; Ragweed plant response rating (0 to 100 scale) ([14]; 500 g ai/ha): 0; Ryegrass, Italian plant response rating (0 to 100 scale) ([15]; 125 g ai/ha): 0; Ryegrass, Italian plant response rating (0 to 100 scale) ([15]; 500 g ai/ha): 50; Wheat plant response rating (0 to 100 scale) ([16]; 125 g ai/ha): 0; Wheat plant response rating (0 to 100 scale) ([16]; 500 g ai/ha): 0; Plant response rating, Flood, Barnyardgrass [17]: 40; Plant response rating, Flood, Ducksalad [18]: 90; Plant response rating, Flood, Rice [19]: 20; Plant response rating, Flood, Sedge, Umbrella [20]: 75 |
| CSc1ccccc1NC(=O)C1c2nncn2CC1c1ccc(C)c(C)c1 (stereo not drawn) [Compound 18] | 20 | 60 | 0 | 80 | 0 | 0 | 0 | 0 | 0 | 30 | 0 | 20 | 0 | 30 | 0 | 0 | 0 | 0 | 0 | 20 | Galium plant response rating (0 to 100 scale) ([11]; 125 g ai/ha): 20; Galium plant response rating (0 to 100 scale) ([11]; 500 g ai/ha): 20; Kochia plant response rating (0 to 100 scale) ([12]; 125 g ai/ha): 20; Kochia plant response rating (0 to 100 scale) ([12]; 500 g ai/ha): 20; Pigweed plant response rating (0 to 100 scale) ([13]; 125 g ai/ha): 0; Pigweed plant response rating (0 to 100 scale) ([13]; 500 g ai/ha): 0; Ragweed plant response rating (0 to 100 scale) ([14]; 125 g ai/ha): 0; Ragweed plant response rating (0 to 100 scale) ([14]; 500 g ai/ha): 0; Ryegrass, Italian plant response rating (0 to 100 scale) ([15]; 125 g ai/ha): 0; Ryegrass, Italian plant response rating (0 to 100 scale) ([15]; 500 g ai/ha): 0; Wheat plant response rating (0 to 100 scale) ([16]; 125 g ai/ha): 0; Wheat plant response rating (0 to 100 scale) ([16]; 500 g ai/ha): 0; Plant response rating, Flood, Barnyardgrass [17]: 0; Plant response rating, Flood, Ducksalad [18]: 40; Plant response rating, Flood, Rice [19]: 0; Plant response rating, Flood, Sedge, Umbrella [20]: 0 |
| CCc1ccc(C2Cn3c(C)nnc3C2C(=O)Nc2cccc(F)c2F)cc1 (stereo not drawn) [Compound 23] | 60 | 90 | 70 | 90 | 20 | 40 | 0 | 20 | 0 | 0 | 0 | 0 | 50 | 90 | 0 | 20 | 0 | 20 | 30 | 70 | Galium plant response rating (0 to 100 scale) ([11]; 125 g ai/ha): 0; Galium plant response rating (0 to 100 scale) ([11]; 500 g ai/ha): 30; Kochia plant response rating (0 to 100 scale) ([12]; 125 g ai/ha): 30; Kochia plant response rating (0 to 100 scale) ([12]; 500 g ai/ha): 30; Pigweed plant response rating (0 to 100 scale) ([13]; 125 g ai/ha): 0; Pigweed plant response rating (0 to 100 scale) ([13]; 500 g ai/ha): 0; Ragweed plant response rating (0 to 100 scale) ([14]; 125 g ai/ha): 0; Ragweed plant response rating (0 to 100 scale) ([14]; 500 g ai/ha): 0; Ryegrass, Italian plant response rating (0 to 100 scale) ([15]; 125 g ai/ha): 0; Ryegrass, Italian plant response rating (0 to 100 scale) ([15]; 500 g ai/ha): 0; Wheat plant response rating (0 to 100 scale) ([16]; 125 g ai/ha): 0; Wheat plant response rating (0 to 100 scale) ([16]; 500 g ai/ha): 0; Plant response rating, Flood, Barnyardgrass [17]: 0; Plant response rating, Flood, Ducksalad [18]: 80; Plant response rating, Flood, Rice [19]: 0; Plant response rating, Flood, Sedge, Umbrella [20]: 0 |
